Earlier results on one compound are cited in patent US20240279338A1, “Combination Treatment of Cancer” (Ares Trading S.A., priority 2021, published 2024).

This data set has as its target T1, A3 receptor (Homo sapiens, UniProt P0DMS8).
T1 sequence (P0DMS8 1-318): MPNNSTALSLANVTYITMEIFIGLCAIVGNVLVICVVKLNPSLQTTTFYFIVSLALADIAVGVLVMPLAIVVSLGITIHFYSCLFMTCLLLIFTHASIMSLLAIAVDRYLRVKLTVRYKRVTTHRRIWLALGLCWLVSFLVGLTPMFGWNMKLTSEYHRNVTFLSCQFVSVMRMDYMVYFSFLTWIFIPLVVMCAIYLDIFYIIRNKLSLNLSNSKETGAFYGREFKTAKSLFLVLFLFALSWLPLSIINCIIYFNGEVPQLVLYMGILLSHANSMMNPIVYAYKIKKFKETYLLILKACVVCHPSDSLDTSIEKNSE
The settings on record: cited from earlier work.

Turning to `Nc1ncnc2c1ncn2[C@@H]1O[C@H](CO)[C@@H](O)[C@H]1O` [adenosine], the “adenosine sensitivity (affinity) of receptor” value is 100 nM.
